Experiment [1] concerns 229E human corona virus (hCoV). Kind of experiment: 229E Live Virus Assay (MRC-5 cells, CPE, ATPlite readout). Type of experiment: cell-based, hCoV-229E. The following applies: Human coronavirus 229E, MRC5, 144 h, read-out: 229E EC50. Background: ATP-based viability assays read luminescence as a measure of living cells.
The next experiment has as its target SARS-CoV-2 3CL-protease (Severe acute respiratory syndrome coronavirus 2 (2019-nCoV) (SARS-CoV-2), UniProt P0DTD1). Kind of experiment: SARS-CoV-2 3C-Like (3CL) Protease Fluorescence Assay (FRET). It is filed as biochemical.

The term EC50 denotes the concentration that produces a half-maximal response. One may read the IC50 as the midpoint of a concentration-inhibition curve. Low values mean higher potency, high ones lower potency.

In the case of `CC(C)[C@H](NC(=O)N1CCCCC1)C(=O)N(C)[C@@H](CC(C)(C)C)C(=O)N1C[C@]2(C[C@H]1C#N)C(=O)Nc1ccccc12` [Example 112], in experiment [1], the EC50 fell in the range of 100 to 1000 nM. The molecule further yielded a 50% inhibitory concentration (IC50) against SARS-CoV-2 3CL-protease of less than 100 nM.

As to `CC(=O)N[C@@H](Cc1cc(F)c(F)cc1F)C(=O)N(C)[C@@H](CC(C)(C)C)C(=O)N1C[C@]2(C[C@H]1C#N)C(=O)Nc1ccccc12` [Example 113], the concentration for a half-maximal effect (EC50) in experiment [1] is less than 100 nM. For the same molecule, on SARS-CoV-2 3CL-protease, the IC50 is less than 100 nM.

On to `CC(=O)N[C@H](Cc1cc(F)c(F)cc1F)C(=O)N(C)[C@@H](CC(C)(C)C)C(=O)N1C[C@]2(C[C@H]1C#N)C(=O)Nc1ccccc12` [Example 114], for which the EC50 in experiment [1] is less than 100 nM. Moreover, the IC50 against SARS-CoV-2 3CL-protease is less than 100 nM.

`CC(C)C[C@@H](C(=O)N1C[C@]2(C[C@H]1C#N)C(=O)Nc1ccccc12)N(C)C(=O)C1(NC(=O)OCc2ccccc2)CCCC1` [Example 115]: in experiment [1], the concentration for a half-maximal effect (EC50) lay in the range of 100 to 1000 nM. Besides, at SARS-CoV-2 3CL-protease, the half-maximal inhibitory concentration (IC50) is less than 100 nM.

For `CC(C)OC(=O)N[C@@H](CC1CC1)C(=O)N(C)[C@@H](CC(C)(C)C)C(=O)N1C[C@]2(C[C@H]1C#N)C(=O)Nc1ccccc12` [Example 121], in experiment [1], the EC50 is less than 100 nM. In addition, at SARS-CoV-2 3CL-protease, the concentration for half-maximal inhibition (IC50) was less than 100 nM.

Turning to `CN(C(=O)[C@H](CC1CC1)NC(=O)C1COC1)[C@@H](CC(C)(C)C)C(=O)N1C[C@]2(C[C@H]1C#N)C(=O)Nc1ccccc12` [Example 122], the concentration giving a half-maximal response (EC50) in experiment [1] is less than 100 nM. On SARS-CoV-2 3CL-protease, the half-maximal inhibitory concentration (IC50) is less than 100 nM.

On to `COc1cc(C(=O)N[C@@H](CC2CC2)C(=O)N(C)[C@@H](CC(C)(C)C)C(=O)N2C[C@]3(C[C@H]2C#N)C(=O)Nc2ccccc23)cc2cn(C3CC3)nc12` [Example 123], for which the EC50 in experiment [1] fell in the range of 100 to 1000 nM. On SARS-CoV-2 3CL-protease, this molecule had an IC50 of less than 100 nM.

`CN(C(=O)[C@H](CC1CC1)NC(=O)c1cn(C2CC2)nn1)[C@@H](CC(C)(C)C)C(=O)N1C[C@]2(C[C@H]1C#N)C(=O)Nc1ccccc12` [Example 124]: the EC50 in experiment [1] was less than 100 nM. In addition, the IC50 on SARS-CoV-2 3CL-protease was less than 100 nM.

For the molecule `C[C@H](NC(=O)C(F)(F)F)C(=O)N(C)[C@@H](CC(C)(C)C)C(=O)N1C[C@]2(C[C@H]1C#N)C(=O)Nc1ccccc12` [Example 128], in experiment [1], the EC50 was less than 100 nM. The molecule further gave an IC50 against SARS-CoV-2 3CL-protease of less than 100 nM.

In the case of `[2H]C([2H])([2H])N(C(=O)[C@H](CC1CC1)NC(=O)C(F)(F)F)[C@@H](CC1CC1)C(=O)N1C[C@]2(C[C@H]1C#N)C(=O)Nc1ccccc12` [Example 134], in experiment [1], the 50% effective concentration (EC50) is less than 100 nM. For the same molecule, the IC50 at SARS-CoV-2 3CL-protease is less than 100 nM.
